Assay results from PMC12276312 (Nature Communications, 2025).

B1: MxaF, untagged, co-expressed with MxaJ-His6 for cryo-EM (enzyme, Methylobacterium extorquens AM1, UniProt P16027 28-626, looked up)
chain: NDKLVELSKSDDNWVMPGKNYDSNNFSDLKQINKGNVKQLRPAWTFSTGLLNGHEGAPLVVDGKMYIHTSFPNNTFALGLDDPGTILWQDKPKQNPAARAVACCDLVNRGLAYWPGDGKTPALILKTQLDGNVAALNAETGETVWKVENSDIKVGSTLTIAPYVVKDKVIIGSSGAELGVRGYLTAYDVKTGEQVWRAYATGPDKDLLLASDFNIKNPHYGQKGLGTGTWEGDAWKIGGGTNWGWYAYDPGTNLIYFGTGNPAPWNETMRPGDNKWTMTIFGRDADTGEAKFGYQKTPHDEWDYAGVNVMMLSEQKDKDGKARKLLTHPDRNGIVYTLDRTDGALVSANKLDDTVNVFKSVDLKTGQPVRDPEYGTRMDHLAKDICPSAMGYHNQGHDSYDPKRELFFMGINHICMDWEPFMLPYRAGQFFVGATLNMYPGPKGDRQNYEGLGQIKAYNAITGDYKWEKMERFAVWGGTMATAGDLVFYGTLDGYLKARDSDTGDLLWKFKIPSGAIGYPMTYTHKGTQYVAIYYGVGGWPGVGLVFDLADPTAGLGAVGAFKKLANYTQMGGGVVVFSLDGKGPYDDPNVGEWKSAAK

Key:
MxaF/MxaJ complex = target: T1, MxaF/MxaJ complex (Methylorubrum extorquens, UniProt P16027); assay: isothermal titration calorimetry; assay type: binding
T1 sequence (P16027 28-626): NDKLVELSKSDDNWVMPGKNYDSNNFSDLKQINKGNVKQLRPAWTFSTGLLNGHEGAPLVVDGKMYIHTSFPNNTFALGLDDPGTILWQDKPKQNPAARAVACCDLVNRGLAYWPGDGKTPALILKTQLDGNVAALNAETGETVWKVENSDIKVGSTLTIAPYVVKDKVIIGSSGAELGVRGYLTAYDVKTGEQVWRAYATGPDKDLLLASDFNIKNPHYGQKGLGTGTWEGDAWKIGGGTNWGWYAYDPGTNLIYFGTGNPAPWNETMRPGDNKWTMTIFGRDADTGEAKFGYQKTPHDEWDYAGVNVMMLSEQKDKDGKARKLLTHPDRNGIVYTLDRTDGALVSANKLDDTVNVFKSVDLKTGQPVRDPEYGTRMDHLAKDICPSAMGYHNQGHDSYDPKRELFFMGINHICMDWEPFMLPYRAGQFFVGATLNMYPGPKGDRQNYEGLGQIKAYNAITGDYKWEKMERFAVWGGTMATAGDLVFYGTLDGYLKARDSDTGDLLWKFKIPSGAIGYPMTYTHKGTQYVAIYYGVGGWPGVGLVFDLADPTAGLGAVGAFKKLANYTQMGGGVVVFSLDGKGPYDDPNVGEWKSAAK
T1 sequence (P16028 26-300 partner): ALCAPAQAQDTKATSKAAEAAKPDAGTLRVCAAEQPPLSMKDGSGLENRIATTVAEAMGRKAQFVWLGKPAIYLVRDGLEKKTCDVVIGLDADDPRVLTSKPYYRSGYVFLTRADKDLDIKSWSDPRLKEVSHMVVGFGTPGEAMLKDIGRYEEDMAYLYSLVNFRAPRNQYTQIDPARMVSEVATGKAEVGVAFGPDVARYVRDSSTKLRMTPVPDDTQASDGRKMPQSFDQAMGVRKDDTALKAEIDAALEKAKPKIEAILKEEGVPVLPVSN

cryo-EM structure = target: the molecule itself; assay: cryo-EM structure

Molecule | Kd (MxaF/MxaJ complex) | stoichiometry N (cryo-EM structure)
O=C(O)c1cc(C(=O)O)c2c(n1)C(=O)C(=O)c1cc(C(=O)O)[nH]c1-2 [PQQ] | ~77 nM | 
B1 |  | 2
